Results published in patent US12600709B2, “Nonpeptide somatostatin type 5 receptor agonists and uses thereof” (Crinetics Pharmaceuticals, Inc., priority 2019, dated 2026).
Where two headings read alike, the source gives them in different places.

What was measured:
[1] = target: T1, human somatostatin receptor subtype 5 (Homo sapiens, UniProt P35346); experiment: cAMP assay for SST5R (inhibition of cAMP in CHO-K1 cells); assay type: cell-based; details: for EC50: inhibition of cAMP via human SST5 receptor, read-out: SST5 potency; for Fold selectivity for SST5 vs SST2: class symbols, SST5 receptor over SST2 receptor
T1 construct: expressed in transfected cells
Outline: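 CHO-K1 cells stably expressing human SSTR5 were treated 20 min at 37 °C with compounds plus 1.6 μM NKH477 in HBSS, 0.5 mM HEPES pH 7.4, 0.1% BSA, 0.2 mM IBMX. Lysate cAMP measured by HTRF against a standard curve; EC50 from cAMP-versus-concentration plots.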

[2] = target: T2, human somatostatin receptor subtype 2 (Homo sapiens, UniProt P30874); experiment: cAMP assay for SST2R (inhibition of cAMP in CHO-K1 cells); assay type: cell-based; details: Table B; inhibition of cAMP via human SST2 receptor; read-out: SST2 potency
T2 construct: expressed in transfected cells
From the text: General overview: All five SSTR subtypes are Gi coupled G-protein coupled receptors (GPCRs) that lead to decreases in intracellular cyclic AMP (cAMP) when activated by an agonist. Therefore, measurement of intracellular cAMP levels can be used to assess whether compounds of the invention are agonists of SSTR subtypes (John Kelly, Troy Stevens, W. Joseph Thompson, and Roland Seifert, Current Protocols in Pharmacology, 2005, 2.2.1-2.2). One example of an intracellular cAMP assay is described below.
cAMP Assay Protocol for SST2R:
Four days prior to the assay, 5,000 Chinese hamster ovary cells (CHO-K1, ATCC #CCL-61) stably expressing the human somatostatin receptor subtype 2 are plated in each well of a 96-well tissue culture-treated plate in Ham's F12 growth media (ThermoFisher #10-080-CM) supplemented with 10% donor bovine serum (Gemini Bio-Products #100-506), 100 U/mL penicillin; 100 μg/mL streptomycin; 2 mM L-glutamine (Gemini Bio-Products #400-110) and 0.2 mg/mL hygromycin B (GoldBio #31282-04-9). The cells are cultured at 37° C., 5% CO2 and 95% humidity. On the day of the assay, the media is aspirated and the cells are treated with 50 μL of 1.6 μM NKH477 (Sigma #N3290) plus various dilutions of compounds of the invention in assay buffer [1× Hank's Balanced Salt Solution (ThermoFisher #SH3058802), 0.5 mM HEPES pH 7.4, 0.1% bovine serum albumin, 0.2 mM 3-Isobutyl-1-methylxanthine (IBMX, VWR #200002-790)]. The cells are incubated for 20 minutes at 37° C. […] The cells are treated with 50 μL of lysis buffer (HRTF cAMP kit, Cisbio). The lysate is transferred to 384-well plates and cAMP detection and visualization antibodies are added and incubated for 1-24 hours at room temperature. The time-resolved fluorescent signal is read with a Tecan M1000Pro multiplate reader. The intracellular cAMP concentrations are calculated by regression to a standard curve and are plotted vs. the concentration of the compounds of the invention and the EC50 of the compounds are calculated using standard methods. All data manipulations are in GraphPad Prism v6 or v7.

T1 sequence (P35346 whole entry): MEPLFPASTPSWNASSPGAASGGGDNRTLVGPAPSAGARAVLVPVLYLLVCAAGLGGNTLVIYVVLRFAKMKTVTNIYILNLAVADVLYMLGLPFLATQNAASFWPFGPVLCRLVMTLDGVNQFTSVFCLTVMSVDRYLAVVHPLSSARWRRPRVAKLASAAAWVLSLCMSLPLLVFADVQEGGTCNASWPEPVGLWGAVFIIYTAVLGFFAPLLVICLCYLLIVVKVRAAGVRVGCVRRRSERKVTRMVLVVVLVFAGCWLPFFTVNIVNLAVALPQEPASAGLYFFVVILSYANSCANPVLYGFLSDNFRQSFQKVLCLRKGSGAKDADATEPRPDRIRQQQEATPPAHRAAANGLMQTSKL
T2 sequence (P30874 whole entry): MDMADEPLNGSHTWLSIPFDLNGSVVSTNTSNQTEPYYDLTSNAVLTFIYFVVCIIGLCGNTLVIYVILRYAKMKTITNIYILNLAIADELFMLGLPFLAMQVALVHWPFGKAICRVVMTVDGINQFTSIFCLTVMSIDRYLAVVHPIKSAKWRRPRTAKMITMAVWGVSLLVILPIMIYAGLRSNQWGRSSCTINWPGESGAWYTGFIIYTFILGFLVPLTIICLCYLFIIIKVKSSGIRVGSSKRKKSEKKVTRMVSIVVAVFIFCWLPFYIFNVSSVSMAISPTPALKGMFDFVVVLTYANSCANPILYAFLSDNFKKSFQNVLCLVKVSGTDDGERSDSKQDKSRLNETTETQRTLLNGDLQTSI

## Cc1cccc2[nH]c(-c3cncc(C(=O)N(C)[C@@H](C)C4CC4)c3N3CC[C@](C)(N)C3)nc12 [2-29, 4-[(3S)-3-amino-3-methylpyrrolidin-1-yl]-N-[(1S)-1-cyclopropylethyl]-N-methyl-5-(4-methyl-1H-1,3-benzodiazol-2-yl)pyridine-3-carboxamide]
[1]; Table A
  EC50: < 10 nM
[1]; Table B
  Fold selectivity for SST5 vs SST2: + (+=10 to 99)
  EC50: < 10 nM
[2]
  EC50: 10 to 100 nM

## COc1cc(-c2c(C)ncc(C(=O)NC3CCCCC3)c2N2CC[C@](C)(N)C2)ccn1 [1-255, 4-[(3S)-3-amino-3-methylpyrrolidin-1-yl]-N-cyclohexyl-2′-methoxy-2-methyl-[3,4′-bipyridine]-5-carboxamide]
[1]; Table A
  EC50: < 10 nM
[1]; Table B
  Fold selectivity for SST5 vs SST2: +++ (+++=>500)
  EC50: < 10 nM
[2]
  EC50: > 1000 nM

## COc1ncc(C(=O)N[C@@H](C)C(F)(F)F)c(N2CC[C@](C)(N)C2)c1-c1ccc(F)c(Cl)c1 [1-261, 4-[(3S)-3-amino-3-methylpyrrolidin-1-yl]-5-(3-chloro-4-fluorophenyl)-6-methoxy-N-[(2S)-1,1,1-trifluoropropan-2-yl]pyridine-3-carboxamide]
[1]; Table A
  EC50: < 10 nM
[1]; Table B
  Fold selectivity for SST5 vs SST2: +++ (+++=>500)
  EC50: < 10 nM
[2]
  EC50: 100 to 1000 nM

## C[C@]1(N)CCN(c2c(C(=O)NC(C3CC3)C3CC3)cncc2-c2cc(F)cc(F)c2)C1 [1-51, 4-[(3S)-3-amino-3-methylpyrrolidin-1-yl]-N-(dicyclopropylmethyl)-5-(3,5-difluorophenyl)pyridine-3-carboxamide]
[1]; Table A
  EC50: < 10 nM
[1]; Table B
  Fold selectivity for SST5 vs SST2: +++ (+++=>500)
  EC50: < 10 nM
[2]
  EC50: 100 to 1000 nM

## C[C@]1(N)CCN(c2c(C(=O)NCc3ccon3)cnc(C#N)c2-c2cc(F)cc(Cl)c2)C1 [1-244, 4-[(3S)-3-amino-3-methylpyrrolidin-1-yl]-5-(3-chloro-5-fluorophenyl)-6-cyano-N-[(1,2-oxazol-3-yl)methyl]pyridine-3-carboxamide]
[1]; Table A
  EC50: < 10 nM
[1]; Table B
  Fold selectivity for SST5 vs SST2: +++ (+++=>500)
  EC50: < 10 nM
[2]
  EC50: 100 to 1000 nM

## CC(N)C1CN(c2c(C(=O)NC34CC(C3)C4)cnc(C#N)c2-c2cc(F)cc(F)c2)C1 (stereo not shown) [1-100, 4-[3-(1-aminoethyl)azetidin-1-yl]-N-{bicyclo[1.1.1]pentan-1-yl}-6-cyano-5-(3,5-difluorophenyl)pyridine-3-carboxamide]
[1]; Table A
  EC50: < 10 nM
[1]; Table B
  Fold selectivity for SST5 vs SST2: +++ (+++=>500)
  EC50: < 10 nM
[2]
  EC50: > 1000 nM

## COc1ncc(C(=O)NC2CCC(F)(F)CC2)c(N2CC[C@H](N)C2)c1-c1cc(F)cc(Cl)c1 [1-284, 4-[(3S)-3-aminopyrrolidin-1-yl]-5-(3-chloro-5-fluorophenyl)-N-(4,4-difluorocyclohexyl)-6-methoxypyridine-3-carboxamide]
[1]; Table A
  EC50: < 10 nM
[1]; Table B
  Fold selectivity for SST5 vs SST2: +++ (+++=>500)
  EC50: < 10 nM
[2]
  EC50: 100 to 1000 nM

## COc1ncc(C(=O)N[C@@H](C)C2CC2)c(N2CC[C@](C)(N)C2)c1-c1cccc(OC(F)(F)F)c1 [1-154, 4-[(3S)-3-amino-3-methylpyrrolidin-1-yl]-N-[(1S)-1-cyclopropylethyl]-6-methoxy-5-[3-(trifluoromethoxy)phenyl]pyridine-3-carboxamide]
[1]; Table A
  EC50: < 10 nM
[1]; Table B
  Fold selectivity for SST5 vs SST2: +++ (+++=>500)
  EC50: < 10 nM
[2]
  EC50: > 1000 nM

## C[C@]1(N)CCN(c2c(C(=O)NCC3(F)CCC3)cncc2-c2cc(F)cc(F)c2)C1 [1-47, 4-[(3S)-3-amino-3-methylpyrrolidin-1-yl]-5-(3,5-difluorophenyl)-N-[(1-fluorocyclobutyl)methyl]pyridine-3-carboxamide]
[1]; Table A
  EC50: < 10 nM
[1]; Table B
  Fold selectivity for SST5 vs SST2: +++ (+++=>500)
  EC50: < 10 nM
[2]
  EC50: 100 to 1000 nM

## Cc1cccc2[nH]c(-c3cncc(C(=O)NC45CC(C4)C5)c3N3CC[C@](C)(N)C3)nc12 [2-15, 4-[(3S)-3-amino-3-methylpyrrolidin-1-yl]-N-{bicyclo[1,1,1]pentan-1-yl}-5-(4-methyl-1H-1,3-benzodiazol-2-yl)pyridine-3-carboxamide]
[1]; Table A
  EC50: < 10 nM
[1]; Table B
  Fold selectivity for SST5 vs SST2: ++ (++=100 to 499)
  EC50: < 10 nM
[2]
  EC50: 100 to 1000 nM

## C[C@]1(N)CCN(c2c(C(=O)NC3CCC(F)(F)CC3)cncc2-c2cccc(C#N)c2)C1 [1-10, 4-[(3S)-3-amino-3-methylpyrrolidin-1-yl]-5-(3-cyanophenyl)-N-(4,4-difluorocyclohexyl)pyridine-3-carboxamide]
[1]; Table A
  EC50: 10 to 100 nM
[1]; Table B
  Fold selectivity for SST5 vs SST2: ++ (++=100 to 499)
  EC50: 10 to 100 nM
[2]
  EC50: > 1000 nM

## N[C@H]1CCN(c2c(C(=O)NC(C3CC3)C3CC3)cncc2-c2cc(F)cc(Cl)c2)C1 [1-61, 4-[(3S)-3-aminopyrrolidin-1-yl]-5-(3-chloro-5-fluorophenyl)-N-(dicyclopropylmethyl)pyridine-3-carboxamide]
[1]; Table A
  EC50: < 10 nM
[1]; Table B
  Fold selectivity for SST5 vs SST2: +++ (+++=>500)
  EC50: < 10 nM
[2]
  EC50: > 1000 nM

## COc1ncc(C(=O)N[C@@H](C)C(F)(F)F)c(N2CC[C@](C)(N)C2)c1-c1cc(F)cc(Cl)c1 [1-228, 4-[(3S)-3-amino-3-methylpyrrolidin-1-yl]-5-(3-chloro-5-fluorophenyl)-6-methoxy-N-[(2S)-1,1,1-trifluoropropan-2-yl]pyridine-3-carboxamide]
[1]; Table A
  EC50: < 10 nM
[1]; Table B
  Fold selectivity for SST5 vs SST2: +++ (+++=>500)
  EC50: < 10 nM
[2]
  EC50: 10 to 100 nM

## C[C@H](NC(=O)c1cnc(OCC(F)F)c(-c2cc(F)cc(F)c2)c1N1CC[C@](C)(N)C1)C1CC1 [1-177, 4-[(3S)-3-amino-3-methylpyrrolidin-1-yl]-N-[(1S)-1-cyclopropylethyl]-6-(2,2-difluoroethoxy)-5-(3,5-difluorophenyl)pyridine-3-carboxamide]
[1]; Table A
  EC50: < 10 nM
[1]; Table B
  Fold selectivity for SST5 vs SST2: +++ (+++=>500)
  EC50: < 10 nM
[2]
  EC50: 10 to 100 nM

## N#Cc1ncc(C(=O)NC2CCCCC2)c(N2CC[C@H](N)C2)c1-c1cc(F)cc(F)c1 [1-81, 4-[(3S)-3-aminopyrrolidin-1-yl]-6-cyano-N-cyclohexyl-5-(3,5-difluorophenyl)pyridine-3-carboxamide]
[1]; Table A
  EC50: < 10 nM
[1]; Table B
  Fold selectivity for SST5 vs SST2: +++ (+++=>500)
  EC50: < 10 nM
[2]
  EC50: 100 to 1000 nM

## COc1ncc(C(=O)N[C@@H](C)C(F)(F)F)c(N2CC[C@](C)(N)C2)c1-c1ccc2nonc2c1 [1-186, 4-[(3S)-3-amino-3-methylpyrrolidin-1-yl]-5-(2,1,3-benzoxadiazol-5-yl)-6-methoxy-N-[(2S)-1,1,1-trifluoropropan-2-yl]pyridine-3-carboxamide]
[1]; Table A
  EC50: < 10 nM
[1]; Table B
  Fold selectivity for SST5 vs SST2: +++ (+++=>500)
  EC50: < 10 nM
[2]
  EC50: 100 to 1000 nM

## C[C@H](NC(=O)c1cnc(C(F)(F)F)c(-c2cc(F)cc(F)c2)c1N1CC[C@H](N)C1)C(F)(F)F [1-212, 4-[(3S)-3-aminopyrrolidin-1-yl]-5-(3,5-difluorophenyl)-6-(trifluoromethyl)-N-[(2S)-1,1,1-trifluoropropan-2-yl]pyridine-3-carboxamide]
[1]; Table A
  EC50: < 10 nM
[1]; Table B
  Fold selectivity for SST5 vs SST2: +++ (+++=>500)
  EC50: < 10 nM
[2]
  EC50: 100 to 1000 nM

## COc1ncc(C(=O)N[C@@H](C)C(F)(F)F)c(N2CC[C@](C)(N)C2)c1-c1cccc2c1cnn2C [1-183, 4-[(3S)-3-amino-3-methylpyrrolidin-1-yl]-6-methoxy-5-(1-methyl-1H-indazol-4-yl)-N-[(2S)-1,1,1-trifluoropropan-2-yl]pyridine-3-carboxamide]
[1]; Table A
  EC50: < 10 nM
[1]; Table B
  Fold selectivity for SST5 vs SST2: +++ (+++=>500)
  EC50: < 10 nM
[2]
  EC50: > 1000 nM

## Cc1cc(C)cc(-c2cncc(C(=O)Nc3cc(F)cc(Cl)c3)c2N2CC[C@H](N)C2)c1 [1-3, 4-[(3 S)-3-aminopyrrolidin-1-yl]-N-(3-chloro-5-fluorophenyl)-5-(3,5-dimethylphenyl)pyridine-3-carboxamide]
[1]; Table A
  EC50: < 10 nM
[1]; Table B
  Fold selectivity for SST5 vs SST2: + (+=10 to 99)
  EC50: < 10 nM
[2]
  EC50: 100 to 1000 nM
